Reference: the NIST ThermoML archive (doi:10.1021/je060271a)
“And” between values parts separate entries of the source, which are not always exact repeats. Equal entries are not always repeated.

Conditions: 343.15 K, Liquid, Vibrating tube method

CCCCCCC(=O)OCC(COC(=O)CCCCCC)(COC(=O)CCCCCC)COC(=O)CCCCCC [pentaerythritol tetraheptanoate]
Conditions	mass density
143.4 kPa	940.7 kg/m3
144.1 kPa	940.6 kg/m3
144.3 kPa	940.8 kg/m3
144.8 kPa	940.7 kg/m3 and 940.6 kg/m3
145 kPa	940.6 kg/m3 and 940.7 kg/m3
145.7 kPa	940.7 kg/m3
145.9 kPa	940.6 kg/m3
146.2 kPa	940.6 kg/m3
146.4 kPa	940.7 kg/m3
146.9 kPa	940.6 kg/m3
147.3 kPa	940.6 kg/m3
147.6 kPa	940.7 kg/m3
148.1 kPa	940.8 kg/m3
148.5 kPa	940.7 kg/m3
148.8 kPa	940.6 kg/m3
149 kPa	940.7 kg/m3
149.2 kPa	940.7 kg/m3
149.7 kPa	940.6 kg/m3
149.9 kPa	940.6 kg/m3
150 kPa	940.7 kg/m3
150.2 kPa	940.7 kg/m3
150.4 kPa	940.8 kg/m3
151.1 kPa	940.6 kg/m3
151.3 kPa	940.7 kg/m3
151.8 kPa	940.7 kg/m3 and 940.6 kg/m3
151.9 kPa	940.6 kg/m3
152.5 kPa	940.7 kg/m3
153 kPa	940.8 kg/m3
153.2 kPa	940.8 kg/m3
153.7 kPa	940.8 kg/m3
153.9 kPa	940.7 kg/m3
154.2 kPa	940.7 kg/m3
154.9 kPa	940.7 kg/m3
155.1 kPa	940.7 kg/m3
155.6 kPa	940.7 kg/m3
155.8 kPa	940.7 kg/m3
155.9 kPa	940.8 kg/m3
156.3 kPa	940.7 kg/m3
156.8 kPa	940.7 kg/m3
157 kPa	940.7 kg/m3
157.5 kPa	940.7 kg/m3
157.9 kPa	940.7 kg/m3
158.2 kPa	940.7 kg/m3
159.1 kPa	940.7 kg/m3
159.2 kPa	940.8 kg/m3
159.6 kPa	940.7 kg/m3
159.9 kPa	940.7 kg/m3
160.6 kPa	940.7 kg/m3
161.3 kPa	940.7 kg/m3
161.5 kPa	940.6 kg/m3
162.2 kPa	940.6 kg/m3
162.6 kPa	940.6 kg/m3
163.3 kPa	940.8 kg/m3
163.4 kPa	940.7 kg/m3
163.9 kPa	940.7 kg/m3
164.5 kPa	940.7 kg/m3
164.8 kPa	940.7 kg/m3
165.2 kPa	940.7 kg/m3
165.7 kPa	940.7 kg/m3
166.2 kPa	940.8 kg/m3
166.7 kPa	940.6 kg/m3
167.3 kPa	940.6 kg/m3
167.9 kPa	940.6 kg/m3
168.3 kPa	940.8 kg/m3
168.6 kPa	940.7 kg/m3
169.2 kPa	940.7 kg/m3
169.9 kPa	940.6 kg/m3
170.4 kPa	940.8 kg/m3
170.9 kPa	940.6 kg/m3
171.2 kPa	940.7 kg/m3
171.8 kPa	940.6 kg/m3
172.3 kPa	940.6 kg/m3
172.8 kPa	940.7 kg/m3
173 kPa	940.7 kg/m3
173.2 kPa	940.7 kg/m3
173.7 kPa	940.7 kg/m3
174.4 kPa	940.6 kg/m3
174.9 kPa	940.7 kg/m3
175.2 kPa	940.6 kg/m3
175.9 kPa	940.7 kg/m3
176.5 kPa	940.8 kg/m3
177.1 kPa	940.7 kg/m3
178 kPa	940.7 kg/m3
178.4 kPa	940.6 kg/m3
178.9 kPa	940.7 kg/m3
179.6 kPa	940.7 kg/m3
180.8 kPa	940.7 kg/m3
181.5 kPa	940.6 kg/m3
182.2 kPa	940.7 kg/m3
182.7 kPa	940.8 kg/m3
183.2 kPa	940.7 kg/m3
184.1 kPa	940.6 kg/m3
184.8 kPa	940.8 kg/m3
185.3 kPa	940.6 kg/m3
185.8 kPa	940.8 kg/m3
186.7 kPa	940.7 kg/m3
187.1 kPa	940.6 kg/m3
188.1 kPa	940.7 kg/m3
188.8 kPa	940.6 kg/m3
189.3 kPa	940.7 kg/m3
190 kPa	940.8 kg/m3
191.1 kPa	940.6 kg/m3
191.7 kPa	940.6 kg/m3
192.3 kPa	940.7 kg/m3
193.1 kPa	940.6 kg/m3
193.6 kPa	940.6 kg/m3
194.3 kPa	940.7 kg/m3
195.4 kPa	940.8 kg/m3
196.1 kPa	940.8 kg/m3
197.1 kPa	940.7 kg/m3
197.7 kPa	940.8 kg/m3
